24 substances from patent US11987647B2, “Cyclic cell-penetrating peptides with one or more hydrophobic residues” (Ohio State Innovation Foundation, priority 2018, dated 2024) can be followed below.

[ ]: non-standard residue; d: D form. The star is where a group is joined. FtBu = phenylalanine with a tert-butanoyl substituent (F^tBu); 2Nal = N[C@@H](Cc1ccc2ccccc2c1)C(=O)O; Fmoc = O=C(OCC1c2ccccc2-c2ccccc21)*; Decanoyl = CCCCCCCCCC(=O)*; Octanoyl = CCCCCCCC(=O)*; Orn = NCCC[C@H](N)C(=O)O; Dap = NC[C@H](N)C(=O)O; Hexanoyl = CCCCCC(=O)*

The test system of test [1] is HeLa cells. The test can be described thus: Cytosolic entry efficiency of NF-labelled peptides by flow cytometry. As to conditions: for Cellular Entry Efficiency In 10% FBS: 2 h, relative to CPP12 (100%); for CPP activity compared with CPP1-4 (in words): variant of CPP1-4; for sensitivity to serum concentration: 10% vs 1% FBS, compared with CPP9 or CPP12; for CPP activity compared with CPP1-15 (in words): stereochemical variation of CPP1-15. It is filed as cell-based. On the procedure:
All of the peptides were labeled with naphthofluorescein (NF) at the Gln side chain through a long, flexible linker, miniPEG-Lys. HeLa cells were treated with 5 μM peptide for 2 h in the presence of 10% FBS and the cytosolic entry of the peptides was quantitated by flow cytometry analysis.
To determine cellular uptake efficiency of the CPPs disclosed herein, HeLa cells were cultured in 12-well plates (1.5×10^5 cells per well) overnight. The cells were incubated for 2 h with […] naphthofluorescein (NF)-labelled peptide in cellular media. At the end of incubation, the cells were washed with DPBS twice, detached from the plate with 0.25% trypsin, diluted into clear DMEM, pelleted at 250 g for 5 min, washed twice with DPBS, resuspended in DPBS, and analyzed on a BD FACS LSR II flow cytometer. For NF-labelled peptides, a 633-nm laser was used for excitation and the fluorescence emission was analyzed in the APC channel. Absolute cellular uptake efficiency was determined by comparing the concentration (via fluorescence intensity) of the CPP in the cytosol to the concentration in the extracellular medium. Relative cellular uptake efficiency was determined by comparing the cytosolic concentration of the CPP to that cytosolic concentration of the control CPP cyclo(FΦRRRRQ).
Background: In flow cytometry, cells or beads pass a laser one at a time.

Test [2] relates to HeLa cells. Described as above. It is filed as cell-based. As to conditions: for Cellular Entry Efficiency In 1% FBS: relative to CPP12 (100%); for cytosolic entry efficiency: reduced serum concentration (1% FBS), CPP12 most active.
Setting [3] is: Table 4, 5 μM NF-labelled peptide, 10% FBS.
Where [4] appears, read: Table 7, 5 μM NF-labelled peptide, 10% FBS.

Take cyclo(Asp^DecyRrRrQ) [CPP1-22]: the “Cellular Entry Efficiency In 10% FBS” value in test [1] (setting [3]) and in test [1] (setting [4]) was 11% throughout.
As to cyclo(Asp^DecyrRrRQ) [CPP1-24], the “Cellular Entry Efficiency In 10% FBS” value in test [1] (setting [3]) and in test [1] (setting [4]) was 8.6% each time.
With “cyclo(Dap^1-PyrenRRRRQ) (cyclo([Dap](1‑pyrenoyl)RRRRQ)) [CPP1-5]”, the “Cellular Entry Efficiency In 10% FBS” value in test [1] (setting [3]) and in test [1] (setting [4]) was 10 ± 20% throughout.
For the substance “cyclo(Dap^1-PyrenebRRRRQ) (cyclo([Dap](1‑pyrenylbutanoyl)RRRRQ)) [CPP1-8]”, the “Cellular Entry Efficiency In 10% FBS” value in test [1] (setting [3]) and in test [1] (setting [4]) was 24 ± 1% each time.
In the case of “cyclo(Dap^3,3-diphenyRRRRQ) (cyclo([Dap](3,3‑diphenylpropanoyl)RRRRQ)) [CPP1-6]”, the “Cellular Entry Efficiency In 10% FBS” value in test [1] (setting [3]) and in test [1] (setting [4]) was 3.9 ± 0.4% in each case.
As to “cyclo(Dap^DecaARRRQ) (cyclo([Dap](Decanoyl)ARRRQ); SMILES CCCCCCCCCC(=O)NC[C@@H]1NC(=O)[C@H](CCC(N)=O)NC(=O)[C@H](CCCNC(=N)N)NC(=O)[C@H](CCCNC(=N)N)NC(=O)[C@H](CCCNC(=N)N)NC(=O)[C@H](C)NC1=O) [CPP1-12]”, the “Cellular Entry Efficiency In 10% FBS” value in test [1] (setting [3]) and in test [1] (setting [4]) was 26 ± 4% each time. Further, in test [1], the “CPP activity compared with CPP1-4 (in words)” value is recorded as “reduced the CPP activity”. Moreover, the “Cellular Entry Efficiency In 1% FBS” value is recorded as 34% in test [2] (Table 4, NF-labelled peptide) and 34% in test [2] (Table 7, NF-labelled peptide).
For “cyclo(Dap^DecaRRRAQ) (cyclo([Dap](Decanoyl)RRRAQ); SMILES CCCCCCCCCC(=O)NC[C@@H]1NC(=O)[C@H](CCC(N)=O)NC(=O)[C@H](C)NC(=O)[C@H](CCCNC(=N)N)NC(=O)[C@H](CCCNC(=N)N)NC(=O)[C@H](CCCNC(=N)N)NC1=O) [CPP1-13]”, the “Cellular Entry Efficiency In 10% FBS” value in test [1] (setting [3]) and in test [1] (setting [4]) was 32 ± 2% in each case. In addition, the “CPP activity compared with CPP1-4 (in words)” value in test [1] is on record as “reduced the CPP activity”. The “Cellular Entry Efficiency In 1% FBS” value in test [2] (Table 4, NF-labelled peptide) is listed as 33%; in test [2] (Table 7, NF-labelled peptide) it was 33%.
On to “cyclo(Dap^DecaRRRQ) (cyclo([Dap](Decanoyl)RRRQ); SMILES CCCCCCCCCC(=O)NC[C@@H]1NC(=O)[C@H](CCC(N)=O)NC(=O)[C@H](CCCNC(=N)N)NC(=O)[C@H](CCCNC(=N)N)NC(=O)[C@H](CCCNC(=N)N)NC1=O) [CPP1-16]”, for which the “Cellular Entry Efficiency In 10% FBS” value in test [1] (setting [3]) and in test [1] (setting [4]) was 3.0 ± 0.1% throughout. Further, in test [1], the “CPP activity compared with CPP1-4 (in words)” value was “greatly decreased the CPP activity”. Moreover, the “Cellular Entry Efficiency In 1% FBS” value came to 25% in test [2] (Table 4, NF-labelled peptide) and 25% in test [2] (Table 7, NF-labelled peptide).
Consider “cyclo(Dap^DecaRRRRQ) (cyclo([Dap](Decanoyl)RRRRQ); SMILES CCCCCCCCCC(=O)NC[C@@H]1NC(=O)[C@H](CCC(N)=O)NC(=O)[C@H](CCCNC(=N)N)NC(=O)[C@H](CCCNC(=N)N)NC(=O)[C@H](CCCNC(=N)N)NC(=O)[C@H](CCCNC(=N)N)NC1=O) [CPP1-4]”, for which the “activity, fold higher than CPP1” value in test [1] (10% FBS, versus CPP1) is on record as 2.5 fold. In test [1], the “sensitivity to serum concentration” value is “lower sensitivity to serum concentration”. Moreover, the “Cellular Entry Efficiency In 10% FBS” value in test [1] (setting [3]) and in test [1] (setting [4]) was 57 ± 19% each time. The same substance gave a cytosolic entry efficiency in test [2] of 44%.
On to “cyclo(Dap^DecaRRRRRQ) (cyclo([Dap](Decanoyl)RRRRRQ); SMILES CCCCCCCCCC(=O)NC[C@@H]1NC(=O)[C@H](CCC(N)=O)NC(=O)[C@H](CCCNC(=N)N)NC(=O)[C@H](CCCNC(=N)N)NC(=O)[C@H](CCCNC(=N)N)NC(=O)[C@H](CCCNC(=N)N)NC(=O)[C@H](CCCNC(=N)N)NC1=O) [CPP1-14]”, for which the “Cellular Entry Efficiency In 10% FBS” value in test [1] (setting [3]) and in test [1] (setting [4]) was 12 ± 1% in each case. In test [1], the “CPP activity compared with CPP1-4 (in words)” value is reported as “greatly decreased the CPP activity”. Also, the “Cellular Entry Efficiency In 1% FBS” value in test [2] (Table 4, NF-labelled peptide) stood at 21%; in test [2] (Table 7, NF-labelled peptide), 21%.
cyclo(Dap^DecaRrRrQ) [CPP1-10]: the “Cellular Entry Efficiency In 10% FBS” value in test [1] (setting [3]) and in test [1] (setting [4]) was 21 ± 9% throughout. The “CPP activity compared with CPP1-4 (in words)” value in test [1] is “substantially decreased the CPP activity”. The “Cellular Entry Efficiency In 1% FBS” value in test [2] (Table 4, NF-labelled peptide) is 24%; in test [2] (Table 7, NF-labelled peptide), 24%.
With cyclo(Dap^DecarRrRQ) [CPP1-11], the “Cellular Entry Efficiency In 10% FBS” value in test [1] (setting [3]) and in test [1] (setting [4]) was 20 ± 6% in each case. Besides, in test [1], the “CPP activity compared with CPP1-4 (in words)” value was “substantially decreased the CPP activity”. The “Cellular Entry Efficiency In 1% FBS” value was 29% in test [2] (Table 4, NF-labelled peptide) and 29% in test [2] (Table 7, NF-labelled peptide).
For the substance “cyclo(Dap^FmocRRRRQ) (cyclo([Dap](Fmoc)RRRRQ); SMILES N=C(N)NCCC[C@@H]1NC(=O)[C@H](CCCNC(=N)N)NC(=O)[C@H](CCCNC(=N)N)NC(=O)[C@H](CNC(=O)OCC2c3ccccc3-c3ccccc32)NC(=O)[C@H](CCC(N)=O)NC(=O)[C@H](CCCNC(=N)N)NC1=O) [CPP1-7]”, the “Cellular Entry Efficiency In 10% FBS” value in test [1] (setting [3]) and in test [1] (setting [4]) was 17 ± 1% in each case.
With “cyclo(Dap^HexanRRRRQ) (cyclo([Dap](Hexanoyl)RRRRQ); SMILES CCCCCC(=O)NC[C@@H]1NC(=O)[C@H](CCC(N)=O)NC(=O)[C@H](CCCNC(=N)N)NC(=O)[C@H](CCCNC(=N)N)NC(=O)[C@H](CCCNC(=N)N)NC(=O)[C@H](CCCNC(=N)N)NC1=O) [CPP1-2]”, the “Cellular Entry Efficiency In 10% FBS” value in test [1] (setting [3]) and in test [1] (setting [4]) was 2.9 ± 0.2% in each case.
Turning to “cyclo(Dap^OctanRRRRQ) (cyclo([Dap](Octanoyl)RRRRQ); SMILES CCCCCCCC(=O)NC[C@@H]1NC(=O)[C@H](CCC(N)=O)NC(=O)[C@H](CCCNC(=N)N)NC(=O)[C@H](CCCNC(=N)N)NC(=O)[C@H](CCCNC(=N)N)NC(=O)[C@H](CCCNC(=N)N)NC1=O) [CPP1-3]”, the “Cellular Entry Efficiency In 10% FBS” value in test [1] (setting [3]) and in test [1] (setting [4]) was 5.7 ± 0.6% each time.
Take “cyclo(F^tBuRRRRQ) (cyclo([FtBu]RRRRQ)) [CPP1-1]”: the “Cellular Entry Efficiency In 10% FBS” value in test [1] (setting [3]) and in test [1] (setting [4]) was 6.7 ± 0.4% each time.
For “cyclo(FfΦRrRrQ) [CPP12, reference compound]”, the “Cellular Entry Efficiency In 10% FBS” value in test [1] (setting [3]) and in test [1] (setting [4]) was 100% throughout. For the same substance, the “Cellular Entry Efficiency In 1% FBS” value is given as 100% in test [2] (Table 4, NF-labelled peptide) and 100% in test [2] (Table 7, NF-labelled peptide).
On to “cyclo(FΦRRRRQ) (cyclo(F[2Nal]RRRRQ); SMILES N=C(N)NCCC[C@@H]1NC(=O)[C@H](CCCNC(=N)N)NC(=O)[C@H](CCCNC(=N)N)NC(=O)[C@H](Cc2ccc3ccccc3c2)NC(=O)[C@H](Cc2ccccc2)NC(=O)[C@H](CCC(N)=O)NC(=O)[C@H](CCCNC(=N)N)NC1=O) [CPP1, the first cyclic CPP discovered, reference compound]”, for which the “Cellular Entry Efficiency In 10% FBS” value in test [1] (setting [3]) and in test [1] (setting [4]) was 21% each time.
For the substance cyclo(Glu^DecyRrRrQ) [CPP1-23], the “Cellular Entry Efficiency In 10% FBS” value in test [1] (setting [3]) and in test [1] (setting [4]) was 1.4% in each case.
Consider cyclo(Glu^DecyrRrRQ) [CPP1-25], for which the “Cellular Entry Efficiency In 10% FBS” value in test [1] (setting [3]) and in test [1] (setting [4]) was 34% in each case.
Consider cyclo(Lys^DecaRrRrQ) [CPP1-18], for which the “Cellular Entry Efficiency In 10% FBS” value in test [1] (setting [3]) and in test [1] (setting [4]) was 31% throughout. In test [1], the “CPP activity compared with CPP1-15 (in words)” value was “reduced the CPP activity”.
Turning to cyclo(Lys^DecarRrRQ) [CPP1-19], the “Cellular Entry Efficiency In 10% FBS” value in test [1] (setting [3]) and in test [1] (setting [4]) was 12% in each case. The “CPP activity compared with CPP1-15 (in words)” value in test [1] was “reduced the CPP activity”.
Regarding “cyclo(Orn^DecaRRRRQ) (cyclo([Orn](Decanoyl)RRRRQ); SMILES CCCCCCCCCC(=O)NCCC[C@@H]1NC(=O)[C@H](CCC(N)=O)NC(=O)[C@H](CCCNC(=N)N)NC(=O)[C@H](CCCNC(=N)N)NC(=O)[C@H](CCCNC(=N)N)NC(=O)[C@H](CCCNC(=N)N)NC1=O) [CPP1-17]”, in test [1], the “sensitivity to serum concentration” value is listed as “lower sensitivity to serum concentration”. Moreover, the “Cellular Entry Efficiency In 10% FBS” value in test [1] (setting [3]) and in test [1] (setting [4]) was 115 ± 32% throughout. In addition, in test [1], the “CPP activity compared with CPP1-4 (in words)” value is given as “slightly increased the CPP activity”. Further, the “Cellular Entry Efficiency In 1% FBS” value in test [2] (Table 4, NF-labelled peptide) is 58 ± 22%; in test [2] (Table 7, NF-labelled peptide), 58 ± 22%. This substance had a cytosolic entry efficiency in test [2] of 58%.
Consider “cyclo(fΦRrRrQ) [CPP9, reference compound]”, for which the “Cellular Entry Efficiency In 10% FBS” value in test [1] (setting [3]) and in test [1] (setting [4]) was 94 ± 7% in each case. Moreover, the “Cellular Entry Efficiency In 1% FBS” value in test [2] (Table 4, NF-labelled peptide) is on record as 32 ± 6%; in test [2] (Table 7, NF-labelled peptide), 32 ± 6%. The substance further came in with a cytosolic entry efficiency in test [2] of 32%.
